Data as given in patent publication US20150359794A1, “IMPAIRMENT OF THE LARGE RIBOSOMAL SUBUNIT PROTEIN RPL24 BY DEPLETION OR ACETYLATION” (Buck Institute for Research on Aging, priority 2014, published 2015).

What was measured:
RPL24 = experiment: LC-MS/MS of RPL24 lysine acetylation (K27, K93) on 60S subunits and polysomes; assay type: cell-based, human; settings: SKBR3 cells, TSA 1 μM, 2 h
Description: Mass spectrometry studies were performed to identify sites of lysine (K) acetylation within RPL24 induced by histone deacetylase inhibition. Continuous and discontinuous sucrose gradient fractionations were performed to isolate 60S subunits and total polysomes respectively. Polyacrylamide gel electrophoresis was then performed on 60S and polysome samples and RPL24-containing bands were excised, trypsin digested, and subjected to mass spectrometry (LC-MS/MS) (FIG. 6a). Among several detected acetylated RPL24 peptides, two were increased by TSA treatment; TDGKacVFQFLNAK (acetyl-K27) (SEQ ID NO:1) and AITGASLADIM*AKacR (acetyl-K93) (SEQ ID NO:2), where the internal lysines in both peptides are N-acetylated (Kac). As the MS experiments of the 60S polysome were performed after in-gel digestion the methionine residue of the second peptide was predominantly oxidized (M*=M+16), as commonly observed during SDS PAGE processing. In independent, in-solution digestion experiments, the corresponding non-oxidized form of acetylated peptide AITGASLADIMAKacR (SEQ ID NO:3) with correlating MS/MS fragmentation pattern was identified. Representative spectra are shown for TDGKacVFQFLNAK (acetyl-K27) (SEQ ID NO:1) and AITGASLADIM*AKacR (acetyl-K93) (SEQ ID NO:2)) (FIG. 11a,b). In 3 biological replicate experiments, the amount of K27-acetylated RPL24, normalized to total protein concentration within the 60S subunit, was increased at least 2-fold within 2 h of TSA treatment. […] Given the proximity of the T. thermophilia RPL24 K26 site (that resides in a homologous region to human K27) to eIF6 (FIG. 7a), these findings implicate involvement of the TSA induced acetylation of RPL24 at K27 in preventing 40S-60S subunit joining and 60S retention of eIF6.
To prepare polysome samples for mass spectrometry, cells are treated with a histone deacetylase inhibitor and polysome pellets are prepared using a discontinuous sucrose gradient as described above. Protein concentration is determined using the Pierce BCA Protein Assay Kit (Thermo Scientific) and equal amount of protein are trypsin digested. Acetyl-lysine immunoprecipitations are carried out on resultant peptides using an antibody from Cell Signaling Technology. Acetyl-proteins are then eluted, extracted, and desalted.
To determine the acetylation status of 60S subunit proteins, cells are treated with histone deacetylase inhibitor and polysome profiles are performed as described above. The four fractions representing the 60S subunit are identified via western blots for Rack1 and RPL24. […]
Three biological replicates of polysome or 60S samples are then analyzed by LC-MS/MS using a quadrupole time-of-flight (QqTOF) TripleTOF 5600 mass spectrometer (AB SCIEX, Dublin, Calif.) coupled to an Eksigent (Dublin, Calif.) nanoLC Ultra, 2D plus. […]

[1] = system: cyclin D1, survivin, and NBS1; experiment: Western blot of cap (eIF4E)-dependently translated proteins; assay type: cell-based, human; settings: SKBR3 cells
Description: Since the translation-dependent checkpoint mechanism remains undefined, the impact of RPL24 depletion in a model human breast cancer cell line, SKBR3, sensitive to eIF4E-regulated and cap-dependent translation inhibition was evaluated. Two different RPL24-directed shRNA-expressing lentiviruses were used to decrease RPL24 protein expression by approximately 70% (FIG. 2a). […] Associated with RPL24 depletion and growth inhibition was a marked reduction in the expression of three different eIF4E-regulated and cap-dependent transcripts necessary for cell proliferation (75% reduction in cyclin D1), survival (46% reduction in survivin), and DNA repair and integrity (30% reduction in NBS1). Protein levels of two housekeeping genes not regulated by eIF4E, GAPDH and β-tubulin, were not affected by RPL24 depletion (FIG. 2a).
Cells are lysed in RIPA buffer (10 mM Tris-HCL (pH 8.0), 1 mM EDTA, 0.5 mM EGTA, 1% triton X-100, 0.1% sodium deoxycholate, 0.1% SDS, 140 mM NaCl, 20 mM NaF, Complete EDTA-free protease inhibitor tablets (Roche Diagnostics Corp., Basel, Switzerland) and the phosphatase inhibitor cocktail PhosSTOP (Roche)), the latter two as indicated by the manufacturer's protocol. Equal amounts of protein are diluted in 2× sample buffer. Immunoblots on PVDF (Polyvinyldene Fluoride) membranes are blocked with nonfat milk in tris-buffered saline with 0.05% tween-20 (TBST). The following antibodies are incubated with membranes in 5% nonfat milk in TBST: RPL24 (Proteintech, Chicago, Ill.), Cyclin D1, Rack1, RPL4 (Santa Cruz Biotechnology, Santa Cruz, Calif.), NBS1, GAPDH (EMD Millipore Corporation, Chicago, Ill.), Survivin, β-tubulin, acetyl-lysine, eIF6, acetyl-H2B, H2B, (Cell Signaling Technology, Boston, Mass.), acetyl-tubulin, tubulin (Sigma Aldrich (St. Louis, Mo.))
FIG. 2: RPL24 knockdown reduces breast cancer cell viability while inhibiting cap (eIF4E)-dependent expression of proliferation, survival and genome stability proteins. SKBR3 cells were infected with lentiviruses expressing a GFP control or RPL24-targeting shRNA. After one week of puromycin selection, cells were plated in 96-well plates for viability assays and lysates were taken in parallel for western blots. (a) Western blots were performed on lysates from an equal number of cells using antibodies toward the indicated proteins. (b) Viability assay readings were taken three hours after plating (day 0) and four days after plating (day 4). The day 4 results were normalized for plating efficiency using the day 0 values. Error bars represent three replicate samples.
FIG. 5: Like RPL24 knockdown, histone deacetylase inhibition reduces 80S assembly while increasing 60S retention of eIF6 and reduces expression of cap (eIF4)-dependently translated proteins (a,b) SKBR3 cells were treated with TSA (1 μM, 2 h). […]

SMILES: CC(/C=C/C(=O)NO)=C\[C@@H](C)C(=O)c1ccc(N(C)C)cc1 [TSA, trichostatin-A]
- RPL24 K93 acetylation within the 60S subunits (RPL24): not significantly changed
- induction of K93 acetylation within RPL24 associated with polysomes (RPL24): 2.5 fold
- induction of RPL24 K27 acetylation within polysomes (RPL24): no significant induction
- increase of K27-acetylated RPL24 within the 60S subunit, normalized to total protein (RPL24; 3 biological replicates): at least 2 fold
- cyclin D1 levels ([1]; 8 h treatment): reduced
- expression of NBS1 relative to GAPDH and β-tubulin ([1]; 24 h treatment): reduced
- expression of cyclin D1 relative to GAPDH and β-tubulin ([1]; 24 h treatment): reduced
- expression of survivin relative to GAPDH and β-tubulin ([1]; 24 h treatment): reduced
